The target of the test is T1, CaCDPK1 (Cicer arietinum, UniProt Q7XZK5).
T1 construct: gene CDPK1; full ORF in pRSET A (His-tag), expressed in Escherichia coli BL21, Ni-NTA purified under native conditions; tag removal not mentioned
Nature of the test: intrinsic tryptophan fluorescence quenching at […] nm. The class given is binding. The settings on record: PA vesicles (sonicated), 1 mM CaCl2, pH 7.2, 25 °C, 1 µM protein; half-maximal fluorescence change; activator.

T1 sequence (Q7XZK5 1-556): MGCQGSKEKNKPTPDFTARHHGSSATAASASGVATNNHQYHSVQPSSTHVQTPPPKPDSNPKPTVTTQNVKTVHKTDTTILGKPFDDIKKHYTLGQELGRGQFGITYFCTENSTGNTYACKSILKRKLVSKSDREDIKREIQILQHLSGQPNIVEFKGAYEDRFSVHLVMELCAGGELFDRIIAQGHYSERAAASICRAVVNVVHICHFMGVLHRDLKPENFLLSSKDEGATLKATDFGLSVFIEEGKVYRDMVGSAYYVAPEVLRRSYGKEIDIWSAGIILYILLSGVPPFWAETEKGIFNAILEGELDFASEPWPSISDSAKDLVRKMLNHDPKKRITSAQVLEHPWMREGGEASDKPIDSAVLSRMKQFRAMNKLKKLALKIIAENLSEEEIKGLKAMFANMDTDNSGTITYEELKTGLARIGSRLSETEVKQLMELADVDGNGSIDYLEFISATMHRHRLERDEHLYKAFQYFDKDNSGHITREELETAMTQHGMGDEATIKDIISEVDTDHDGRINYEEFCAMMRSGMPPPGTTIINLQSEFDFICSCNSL

Take “1,2-diacyl-sn-gylcero-3-P sodium salt [PA]”: the dissociation constant Kd turned out to be 335 nM. This counts as sub-micromolar.

The term Kd denotes the equilibrium constant for the complex coming apart.

These data come from PMC3527483, “Phospholipid Mediated Activation of Calcium Dependent Protein Kinase 1 (CaCDPK1) from Chickpea: A New Paradigm of Regulation” (PLoS ONE, 2012).
